Here are results for 27 molecules from patent US9718819B2 (Merck Sharp & Dohme Corp., priority 2012, dated 2017).

Structures are written as SMILES.

The experiment deals with HIV-1 RT wild-type enzyme (Human immunodeficiency virus type 1 group M subtype B (isolate HXB2) (HIV-1), UniProt P04585). In words: HIV-1 reverse transcriptase inhibitory activity (RT polymerase assay). Type of experiment: biochemical. To be noted: HIV-1 RT wild-type enzyme 83 pM; RNA-dependent DNA polymerase activity; read-out: IC50. The gist of the method: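 Enzyme and compound were preincubated 30 min at room temperature, then RNA/DNA hybrid (16.6 nM final; HCV-derived RNA, biotinylated primer) plus 2 μM dNTPs and 66.6 nM Ru-dUTP added, 90 min at 37 °C. Avidin capture and ECL counting; percent inhibition relative to DMSO (0%) and 1 μM efavirenz (100%), four-parameter IC50 fit.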

One may read the IC50 as the concentration that inhibits the measured activity by half.

On to `CN(C)c1ncc(Cn2cnc(C(F)(F)F)c(Oc3cc(Cl)cc(C#N)c3)c2=O)c(=O)[nH]1` [Example 141, 3-Chloro-5-[1-(2-dimethylamino-6-oxo-1,6-dihydro-pyrimidin-5-ylmethyl)-6-oxo-4-trifluoromethyl-1,6-dihydro-pyrimidin-5-yloxy]-benzonitrile], for which the IC50 was 13 nM.
Next, `N#Cc1cc(Cl)cc(Oc2c(C(F)(F)F)ncn(Cc3cnc(-n4cccn4)[nH]c3=O)c2=O)c1` [Example 142, 3-Chloro-5-[6-oxo-1-(6-oxo-2-pyrazol-1-yl-1,6-dihydro-pyrimidin-5-ylmethyl)-4-trifluoromethyl-1,6-dihydro-pyrimidin-5-yloxy]-benzonitrile]: 35 nM; `N#Cc1cc(Cl)cc(Oc2c(C(F)(F)F)ncn(Cc3cnc(N)[nH]c3=O)c2=O)c1` [Example 143, 3-((1-((2-amino-6-oxo-1,6-dihydropyrimidin-5-yl)methyl)-6-oxo-4-(trifluoromethyl)-1,6-dihydropyrimidin-5-yl)oxy)-5-chlorobenzonitrile]: 7 nM; `CCc1ncc(Cn2cnc(C(F)(F)F)c(Oc3cc(Cl)cc(C#N)c3)c2=O)c(=O)[nH]1` [Example 144, 3-chloro-5-((1-((2-ethyl-6-oxo-1,6-dihydropyrimidin-5-yl)methyl)-6-oxo-4-(trifluoromethyl)-1,6-dihydropyrimidin-5-yl)oxy)benzonitrile]: 9 nM.
Next, `N#Cc1cc(Cl)cc(Oc2c(C(F)(F)F)ncn(Cc3cnc(C4CC4)[nH]c3=O)c2=O)c1` [Example 145, 3-chloro-5-((1-((2-cyclopropyl-6-oxo-1,6-dihydropyrimidin-5-yl)methyl)-6-oxo-4-(trifluoromethyl)-1,6-dihydropyrimidin-5-yl)oxy)benzonitrile]: 9 nM; `N#Cc1cc(Cl)cc(Oc2c(C(F)(F)F)ncn(Cc3cnc(-c4ccc(F)cc4)[nH]c3=O)c2=O)c1` [Example 146, 3-chloro-5-((1-((2-(4-fluorophenyl)-6-oxo-1,6-dihydropyrimidin-5-yl)methyl)-6-oxo-4-(trifluoromethyl)-1,6-dihydropyrimidin-5-yl)oxy)benzonitrile]: 19 nM.
As to `N#Cc1cc(Cl)cc(Oc2c(C(F)(F)F)ncn(Cc3cnc(-c4ccccc4F)[nH]c3=O)c2=O)c1` [Example 147, 3-chloro-5-((1-((2-(2-fluorophenyl)-6-oxo-1,6-dihydropyrimidin-5-yl)methyl)-6-oxo-4-(trifluoromethyl)-1,6-dihydropyrimidin-5-yl)oxy)benzonitrile], the IC50 was 17 nM.
On to `N#Cc1cc(Cl)cc(Oc2c(C(F)(F)F)ncn(Cc3cnc(-c4ccn[nH]4)[nH]c3=O)c2=O)c1` [Example 148, 3-chloro-5-((6-oxo-1-((6-oxo-2-(1H-pyrazol-5-yl)-1,6-dihydropyrimidin-5-yl)methyl)-4-(trifluoromethyl)-1,6-dihydropyrimidin-5-yl)oxy)benzonitrile], for which the IC50 came to 9 nM.
Next, `N#Cc1cc(Cl)cc(Oc2c(C(F)(F)F)ncn(Cc3cnc(-c4ccccc4)[nH]c3=O)c2=O)c1` [Example 149, 3-chloro-5-((6-oxo-1-((6-oxo-2-phenyl-1,6-dihydropyrimidin-5-yl)methyl)-4-(trifluoromethyl)-1,6-dihydropyrimidin-5-yl)oxy)benzonitrile]: 14 nM.
Next, `N#Cc1cc(Cl)cc(Oc2c(C(F)(F)F)ncn(Cc3cnc(-c4cccc(F)c4)[nH]c3=O)c2=O)c1` [Example 150, 3-chloro-5-((1-((2-(3-fluorophenyl)-6-oxo-1,6-dihydropyrimidin-5-yl)methyl)-6-oxo-4-(trifluoromethyl)-1,6-dihydropyrimidin-5-yl)oxy)benzonitrile]: 9 nM; `N#Cc1cc(Cl)cc(Oc2c(C(F)(F)F)ncn(Cc3cnc(-c4ccc(Cl)cc4)[nH]c3=O)c2=O)c1` [Example 151, 3-chloro-5-((1-((2-(4-chlorophenyl)-6-oxo-1,6-dihydropyrimidin-5-yl)methyl)-6-oxo-4-(trifluoromethyl)-1,6-dihydropyrimidin-5-yl)oxy)benzonitrile]: 28 nM.
With `N#Cc1cc(Cl)cc(Oc2c(C(F)(F)F)ncn(Cc3cnc(-c4ccc(Cl)nc4)[nH]c3=O)c2=O)c1` [Example 152, 3-chloro-5-((1-((2-(6-chloropyridin-3-yl)-6-oxo-1,6-dihydropyrimidin-5-yl)methyl)-6-oxo-4-(trifluoromethyl)-1,6-dihydropyrimidin-5-yl)oxy)benzonitrile] the figure was 32 nM; with `N#Cc1cc(Cl)cc(Oc2c(C(F)(F)F)ncn(Cc3cnc(-c4ccc(OC(F)(F)F)cc4)[nH]c3=O)c2=O)c1` [Example 153, 3-chloro-5-((6-oxo-1-((6-oxo-2-(4-(trifluoromethoxy)phenyl)-1,6-dihydropyrimidin-5-yl)methyl)-4-(trifluoromethyl)-1,6-dihydropyrimidin-5-yl)oxy)benzonitrile], 33 nM; with `N#Cc1cc(Cl)cc(Oc2c(C(F)(F)F)ncn(Cc3cnc(C(N)=O)[nH]c3=O)c2=O)c1` [Example 154, 5-((5-(3-chloro-5-cyanophenoxy)-6-oxo-4-(trifluoromethyl)pyrimidin-1(6H)-yl)methyl)-6-oxo-1,6-dihydropyrimidine-2-carboxamide], 42 nM.
In the case of `N#Cc1cc(Cl)cc(Oc2c(C(F)(F)F)ncn(Cc3cnc(C#N)[nH]c3=O)c2=O)c1` [Example 155, 5-((5-(3-chloro-5-cyanophenoxy)-6-oxo-4-(trifluoromethyl)pyrimidin-1(6H)-yl)methyl)-6-oxo-1,6-dihydropyrimidine-2-carbonitrile], the IC50 amounted to 94 nM.
With `CC(=O)c1ncc(Cn2cnc(C(F)(F)F)c(Oc3cc(Cl)cc(C#N)c3)c2=O)c(=O)[nH]1` [Example 156, 3-((1-((2-acetyl-6-oxo-1,6-dihydropyrimidin-5-yl)methyl)-6-oxo-4-(trifluoromethyl)-1,6-dihydropyrimidin-5-yl)oxy)-5-chlorobenzonitrile] the figure was 24 nM; with `N#Cc1cc(Cl)cc(Oc2c(C(F)(F)F)ncn(Cc3cnc(C(F)F)[nH]c3=O)c2=O)c1` [Example 157, 3-chloro-5-((1-((2-(difluoromethyl)-6-oxo-1,6-dihydropyrimidin-5-yl)methyl)-6-oxo-4-(trifluoromethyl)-1,6-dihydropyrimidin-5-yl)oxy)benzonitrile], 32 nM.
With `N#Cc1cc(Cl)cc(Oc2c(C(F)(F)F)ncn(Cc3cnc(-c4ccnc5[nH]ccc45)[nH]c3=O)c2=O)c1` [Example 158, 3-chloro-5-((6-oxo-1-((6-oxo-2-(1H-pyrrolo[2,3-b]pyridin-4-yl)-1,6-dihydropyrimidin-5-yl)methyl)-4-(trifluoromethyl)-1,6-dihydropyrimidin-5-yl)oxy)benzonitrile] the figure was 11 nM.
Next, `N#Cc1cc(Cl)cc(Oc2c(C(F)(F)F)ncn(Cc3cnc(-c4ccc(OC(F)F)cc4)[nH]c3=O)c2=O)c1` [Example 159, 3-chloro-5-((1-((2-(4-(difluoromethoxy)phenyl)-6-oxo-1,6-dihydropyrimidin-5-yl)methyl)-6-oxo-4-(trifluoromethyl)-1,6-dihydropyrimidin-5-yl)oxy)benzonitrile]: 17 nM; `N#Cc1cc(Cl)cc(Oc2c(C(F)F)ncn(Cc3ccc(=O)[nH]n3)c2=O)c1` [Example 160, 3-chloro-5-((4-(difluoromethyl)-6-oxo-1-((6-oxo-1,6-dihydropyridazin-3-yl)methyl)-1,6-dihydropyrimidin-5-yl)oxy)benzonitrile]: 26 nM; `N#Cc1cccc(Oc2c(C(F)(F)F)ncn(Cc3ccc(=O)[nH]n3)c2=O)c1F` [Example 161, 2-fluoro-3-(6-oxo-1-((6-oxo-1,6-dihydropyridazin-3-yl)methyl)-4-(trifluoromethyl)-1,6-dihydropyrimidin-5-yloxy)benzonitrile]: 24 nM.
On to `N#Cc1cc(Cl)cc(Oc2c(OC(F)F)ncn(Cc3ccc(=O)[nH]n3)c2=O)c1` [Example 162, 3-chloro-5-(4-(difluoromethoxy)-6-oxo-1-((6-oxo-1,6-dihydropyridazin-3-yl)methyl)-1,6-dihydropyrimidin-5-yloxy)benzonitrile], for which the IC50 amounted to 79 nM.
Turning to `N#Cc1cc(Oc2c(C(F)(F)F)ncn(Cc3ccc(=O)[nH]n3)c2=O)cc(OC(F)F)c1` [Example 163, 3-(difluoromethoxy)-5-(6-oxo-1-((6-oxo-1,6-dihydropyridazin-3-yl)methyl)-4-(trifluoromethyl)-1,6-dihydropyrimidin-5-yloxy)benzonitrile], the IC50 was found to be 22 nM.
With `Cc1c(C#N)cc(F)cc1Oc1c(C(F)(F)F)ncn(Cc2ccc(=O)[nH]n2)c1=O` [Example 164, 5-fluoro-2-methyl-3-(6-oxo-1-((6-oxo-1,6-dihydropyridazin-3-yl)methyl)-4-(trifluoromethyl)-1,6-dihydropyrimidin-5-yloxy)benzonitrile] the figure was 7 nM.
With `N#Cc1cccc(Oc2c(C(F)(F)F)ncn(Cc3cc(-c4ccc(F)cc4)c(=O)[nH]n3)c2=O)c1F` [Example 165, 2-fluoro-3-((1-((5-(4-fluorophenyl)-6-oxo-1,6-dihydropyridazin-3-yl)methyl)-6-oxo-4-(trifluoromethyl)-1,6-dihydropyrimidin-5-yl)oxy)benzonitrile], the IC50 stood at 3 nM.
Next, `N#Cc1cc(Cl)cc(Oc2c(OC(F)F)ncn(Cc3cc(-c4ccc(F)cc4)c(=O)[nH]n3)c2=O)c1` [Example 166]: 3 nM; `N#Cc1cc(Oc2c(C(F)(F)F)ncn(Cc3cc(-c4ccc(F)cc4)c(=O)[nH]n3)c2=O)cc(OC(F)F)c1` [Example 167, 3-(difluoromethoxy)-5-((1-((5-(4-fluorophenyl)-6-oxo-1,6-dihydropyridazin-3-yl)methyl)-6-oxo-4-(trifluoromethyl)-1,6-dihydropyrimidin-5-yl)oxy)benzonitrile]: 6 nM.
